According to publication PMC8217170, “Phase Ib dose-escalation study of the hypoxia-modifier Myo-inositol trispyrophosphate in patients with hepatopancreatobiliary tumors” (Nature Communications, 2021):
Values joined by “and” are separate entries in the source; they are usually repeats but may differ in a detail not shown here. Identical values can stand only once.

Assay: Plasma levels and pharmacokinetics of intravenous ITPP
Conditions: for VSSO / VZO / AUCTmax / AUC∞ / AUC∞ / Dose / AUMCTmax / AUMC∞ / CLO / Clast / Cmax / Cmax / Dose / Cmin / Elimination rate λz / Half-life / T0.5 / MRTTmax / MRT∞ / Tlast / Tmax: individual patients

Compound: O=P1(O)OC2C3OP(=O)(O)OP(=O)(O)OC3C3OP(=O)(O)OP(=O)(O)OC3C2OP(=O)(O)O1 (stereo not drawn) [ITPP, Myo-inositol trispyrophosphate]
- VSSO (cohort 2 (3732 mg/m2)): 10.6 L and 11.9 L and 8.8 L
- VZO (cohort 2 (3732 mg/m2)): 8.9 L and 10.8 L and 8.1 L
- AUCTmax (cohort 3 (5600 mg/m2)): 1142.0 µg·h/mL and 856.4 µg·h/mL and 1779.2 µg·h/mL
- AUC∞ (cohort 3 (5600 mg/m2)): 1264.3 µg·h/mL and 945.9 µg·h/mL and 1987.5 µg·h/mL
- AUC∞ / Dose (cohort 3 (5600 mg/m2)): 0.2 h*mg/L/mg (2×) and 0.4 h*mg/L/mg
- AUMCTmax (cohort 3 (5600 mg/m2)): 6061.8 h2*mg/L and 4859.5 h2*mg/L and 9884.9 h2*mg/L
- AUMC∞ (cohort 3 (5600 mg/m2)): 7579.9 h2*mg/L and 5932.4 h2*mg/L and 12427.3 h2*mg/L
- CLO (cohort 3 (5600 mg/m2)): 4.4 L/h and 5.9 L/h and 2.8 L/h
- Clast (cohort 3 (5600 mg/m2)): 50.5 µg/mL and 45.2 µg/mL and 94.2 µg/mL
- Cmax (cohort 3 (5600 mg/m2)): 163.0 µg/mL and 120.7 µg/mL and 246.0 µg/mL
- Cmax / Dose (cohort 3 (5600 mg/m2)): 0.0 mg/L/mg
- Cmin (cohort 3 (5600 mg/m2)): 0 ng/mL
- Elimination rate λz (cohort 3 (5600 mg/m2)): 0.4 /h and 0.5 /h (2×)
- Half-life / T0.5 (cohort 3 (5600 mg/m2)): 1.7 h and 1.4 h and 1.5 h
- MRTTmax (cohort 3 (5600 mg/m2)): 1.3 h and 1.7 h and 1.6 h
- MRT∞ (cohort 3 (5600 mg/m2)): 2.0 h and 2.3 h (2×)
- Tlast (cohort 3 (5600 mg/m2)): 10 h
- Tmax (cohort 3 (5600 mg/m2)): 6.0 h
- VSSO (cohort 3 (5600 mg/m2)): 8.8 L and 13.4 L and 6.3 L
- VZO (cohort 3 (5600 mg/m2)): 10.7 L and 11.7 L and 6.2 L
- AUCTmax (cohort 4 (7000 mg/m2)): 1942.5 µg·h/mL and 1258.2 µg·h/mL and 1667.1 µg·h/mL and 1676.0 µg·h/mL
- AUC∞ (cohort 4 (7000 mg/m2)): 3708.1 µg·h/mL and 1559.8 µg·h/mL and 2130.6 µg·h/mL and 1755.9 µg·h/mL
- AUC∞ / Dose (cohort 4 (7000 mg/m2)): 0.5 h*mg/L/mg and 0.2 h*mg/L/mg and 0.3 h*mg/L/mg (2×)
- AUMCTmax (cohort 4 (7000 mg/m2)): 11888.0 h2*mg/L and 7283.0 h2*mg/L and 9303.5 h2*mg/L and 8707.6 h2*mg/L
- AUMC∞ (cohort 4 (7000 mg/m2)): 44109.2 h2*mg/L and 11265.8 h2*mg/L and 15649.8 h2*mg/L and 9654.5 h2*mg/L
- CLO (cohort 4 (7000 mg/m2)): 1.9 L/h and 4.5 L/h and 3.3 L/h and 4.0 L/h
- Clast (cohort 4 (7000 mg/m2)): 214.0 µg/mL and 94.0 µg/mL and 125.5 µg/mL and 43.0 µg/mL
- Cmax (cohort 4 (7000 mg/m2)): 283.0 µg/mL and 166.5 µg/mL and 224.5 µg/mL and 292.0 µg/mL
- Cmax / Dose (cohort 4 (7000 mg/m2)): 0.0 mg/L/mg
- Cmin (cohort 4 (7000 mg/m2)): 0 ng/mL
- Elimination rate λz (cohort 4 (7000 mg/m2)): 0.1 /h and 0.3 /h (2×) and 0.5 /h
- Half-life / T0.5 (cohort 4 (7000 mg/m2)): 5.7 h and 2.2 h and 2.6 h and 1.3 h
- MRTTmax (cohort 4 (7000 mg/m2)): 2.1 h and 1.8 h and 1.6 h and 1.2 h
- MRT∞ (cohort 4 (7000 mg/m2)): 7.9 h and 3.2 h and 3.3 h and 1.5 h
- Tlast (cohort 4 (7000 mg/m2)): 10 h
- Tmax (cohort 4 (7000 mg/m2)): 9.0 h and 6.0 h (2×) and 3.0 h
- VSSO (cohort 4 (7000 mg/m2)): 14.9 L and 14.5 L and 11.0 L and 6.0 L
- VZO (cohort 4 (7000 mg/m2)): 15.6 L and 14.4 L and 12.1 L and 7.4 L
- AUCTmax (cohort 5 (8750 mg/m2)): 1729.5 µg·h/mL and 2397.4 µg·h/mL and 1424.5 µg·h/mL
- AUC∞ (cohort 5 (8750 mg/m2)): 1910.9 µg·h/mL and 2946.9 µg·h/mL and 1803.3 µg·h/mL
- AUC∞ / Dose (cohort 5 (8750 mg/m2)): 0.2 h*mg/L/mg (2×) and 0.3 h*mg/L/mg
- AUMCTmax (cohort 5 (8750 mg/m2)): 9560.8 h2*mg/L and 13507.9 h2*mg/L and 8120.6 h2*mg/L
- AUMC∞ (cohort 5 (8750 mg/m2)): 11777.2 h2*mg/L and 20800.6 h2*mg/L and 13329.9 h2*mg/L
- CLO (cohort 5 (8750 mg/m2)): 4.6 L/h and 3.0 L/h and 4.9 L/h
- Clast (cohort 5 (8750 mg/m2)): 81.5 µg/mL and 168.0 µg/mL and 101.0 µg/mL
- Cmax (cohort 5 (8750 mg/m2)): 266.5 µg/mL and 306.0 µg/mL and 201.0 µg/mL
- Cmax / Dose (cohort 5 (8750 mg/m2)): 0.0 mg/L/mg
- Cmin (cohort 5 (8750 mg/m2)): 0 ng/mL
- Elimination rate λz (cohort 5 (8750 mg/m2)): 0.4 /h and 0.3 /h (2×)
- Half-life / T0.5 (cohort 5 (8750 mg/m2)): 1.5 h and 2.3 h and 2.6 h
- MRTTmax (cohort 5 (8750 mg/m2)): 1.5 h and 1.6 h and 1.7 h
- MRT∞ (cohort 5 (8750 mg/m2)): 2.2 h and 3.1 h and 3.4 h
- Tlast (cohort 5 (8750 mg/m2)): 10 h
- Tmax (cohort 5 (8750 mg/m2)): 6.0 h
- VSSO (cohort 5 (8750 mg/m2)): 9.9 L and 9.1 L and 16.5 L
- VZO (cohort 5 (8750 mg/m2)): 10.2 L and 9.7 L and 18.2 L
- AUCTmax (cohort 6 (10500 mg/m2)): 1813.1 µg·h/mL and 2491.5 µg·h/mL and 3266.4 µg·h/mL and 2233.0 µg·h/mL
- AUC∞ (cohort 6 (10500 mg/m2)): 1921.1 µg·h/mL and 3551.0 µg·h/mL and 8601.3 µg·h/mL and 2661.5 µg·h/mL
- AUC∞ / Dose (cohort 6 (10500 mg/m2)): 0.2 h*mg/L/mg and 0.3 h*mg/L/mg (2×) and 0.8 h*mg/L/mg
- AUMCTmax (cohort 6 (10500 mg/m2)): 10264.8 h2*mg/L and 13653.6 h2*mg/L and 19354.9 h2*mg/L and 12411.4 h2*mg/L
- AUMC∞ (cohort 6 (10500 mg/m2)): 11500.0 h2*mg/L and 30316.3 h2*mg/L and 157035.6 h2*mg/L and 17933.0 h2*mg/L
- CLO (cohort 6 (10500 mg/m2)): 5.5 L/h and 3.0 L/h and 1.2 L/h and 3.9 L/h
- Clast (cohort 6 (10500 mg/m2)): 74.8 µg/mL and 185.0 µg/mL and 337.5 µg/mL and 148.5 µg/mL
- Cmax (cohort 6 (10500 mg/m2)): 265.0 µg/mL and 339.5 µg/mL and 451.0 µg/mL and 299.5 µg/mL
- Cmax / Dose (cohort 6 (10500 mg/m2)): 0.0 mg/L/mg
- Cmin (cohort 6 (10500 mg/m2)): 0 ng/mL
- Elimination rate λz (cohort 6 (10500 mg/m2)): 0.7 h⁻¹ and 0.2 h⁻¹ and 0.1 h⁻¹ and 0.3 h⁻¹
- Half-life / T0.5 (cohort 6 (10500 mg/m2)): 1.0 h and 4.0 h and 11.0 h and 2.0 h
- MRTTmax (cohort 6 (10500 mg/m2)): 1.7 h and 1.5 h and 1.9 h and 1.6 h
- MRT∞ (cohort 6 (10500 mg/m2)): 2.0 h and 4.5 h and 14.3 h and 2.7 h
- Tlast (cohort 6 (10500 mg/m2)): 10 h
- Tmax (cohort 6 (10500 mg/m2)): 6.0 h (2×) and 3.0 h (2×)
- VSSO (cohort 6 (10500 mg/m2)): 10.9 L and 13.4 L and 17.4 L and 10.8 L
- VZO (cohort 6 (10500 mg/m2)): 7.9 L and 16.9 L and 19.3 L and 11.4 L
- AUCTmax (cohort 7 (12390 mg/m2)): 2548.8 µg·h/mL and 2725.4 µg·h/mL and 2231.0 µg·h/mL
- AUC∞ (cohort 7 (12390 mg/m2)): 3050.7 µg·h/mL and 3012.0 µg·h/mL and 2566.2 µg·h/mL
- AUC∞ / Dose (cohort 7 (12390 mg/m2)): 0.2 mg·h/L/mg
- AUMCTmax (cohort 7 (12390 mg/m2)): 14937.6 h2*mg/L and 15888.2 h2*mg/L and 12461.8 h2*mg/L
- AUMC∞ (cohort 7 (12390 mg/m2)): 21377.1 h2*mg/L and 19295.7 h2*mg/L and 16684.7 h2*mg/L
- CLO (cohort 7 (12390 mg/m2)): 4.1 L/h (2×) and 4.8 L/h
- Clast (cohort 7 (12390 mg/m2)): 177.5 µg/mL and 152.0 µg/mL and 129.0 µg/mL
- Cmax (cohort 7 (12390 mg/m2)): 367.5 µg/mL and 403.5 µg/mL and 311.0 µg/mL
- Cmax / Dose (cohort 7 (12390 mg/m2)): 0.0 mg/L/mg
- Cmin (cohort 7 (12390 mg/m2)): 0 ng/mL
- Elimination rate λz (cohort 7 (12390 mg/m2)): 0.4 /h (2×) and 0.5 /h
- Half-life / T0.5 (cohort 7 (12390 mg/m2)): 2.0 h and 1.3 h and 1.8 h
- MRTTmax (cohort 7 (12390 mg/m2)): 1.9 h and 1.8 h and 1.6 h
- MRT∞ (cohort 7 (12390 mg/m2)): 3.0 h and 2.4 h and 2.5 h
- Tlast (cohort 7 (12390 mg/m2)): 10 h
- Tmax (cohort 7 (12390 mg/m2)): 6.0 h
- VSSO (cohort 7 (12390 mg/m2)): 12.2 L and 9.9 L and 12.1 L
- VZO (cohort 7 (12390 mg/m2)): 11.5 L and 7.8 L and 12.5 L
- AUCTmax (cohort 8 (14500 mg/m2)): 3458.0 µg·h/mL and 2612.8 µg·h/mL and 3213.9 µg·h/mL and 2461.1 µg·h/mL
- AUC∞ (cohort 8 (14500 mg/m2)): 3978.5 µg·h/mL and 2818.3 µg·h/mL and 3977.9 µg·h/mL and 2763.6 µg·h/mL
- AUC∞ / Dose (cohort 8 (14500 mg/m2)): 0.3 h*mg/L/mg (2×) and 0.2 h*mg/L/mg (2×)
- AUMCTmax (cohort 8 (14500 mg/m2)): 20144.2 h2*mg/L and 14245.4 h2*mg/L and 18540.8 h2*mg/L and 14081.6 h2*mg/L
- AUMC∞ (cohort 8 (14500 mg/m2)): 26577.3 h2*mg/L and 16679.9 h2*mg/L and 28758.2 h2*mg/L and 17835.7 h2*mg/L
- CLO (cohort 8 (14500 mg/m2)): 3.6 L/h (2×) and 5.1 L/h and 5.2 L/h
- Clast (cohort 8 (14500 mg/m2)): 220.5 µg/mL and 111.5 µg/mL and 226.5 µg/mL and 125.7 µg/mL
- Cmax (cohort 8 (14500 mg/m2)): 496.0 µg/mL and 377.0 µg/mL and 464.5 µg/mL and 426.0 µg/mL
- Cmax / Dose (cohort 8 (14500 mg/m2)): 0.0 mg/L/mg
- Cmin (cohort 8 (14500 mg/m2)): 0 ng/mL
- Elimination rate λz (cohort 8 (14500 mg/m2)): 0.4 /h (2×) and 0.5 /h and 0.3 /h
- Half-life / T0.5 (cohort 8 (14500 mg/m2)): 1.6 h and 1.3 h and 2.3 h and 1.7 h
- MRTTmax (cohort 8 (14500 mg/m2)): 1.8 h (2×) and 1.5 h and 1.7 h
- MRT∞ (cohort 8 (14500 mg/m2)): 2.7 h and 1.9 h and 3.2 h and 2.5 h
- Tlast (cohort 8 (14500 mg/m2)): 10 h
- Tmax (cohort 8 (14500 mg/m2)): 6.0 h
- VSSO (cohort 8 (14500 mg/m2)): 9.8 L and 9.9 L and 11.8 L and 12.9 L
- VZO (cohort 8 (14500 mg/m2)): 8.6 L and 9.5 L and 12.3 L and 12.6 L
- Half-life (range over the different cohorts): 1.3 to 3.3 h
